Laboratory results from patent US20140179681A1, “METHODS AND COMPOSITIONS OF TARGETED DRUG DEVELOPMENT” (priority 2010, published 2014).
Structures can show the parent of a compound that is named as a salt. Where two headings read alike, the source gives them in different places.

Assays:
MDBK line = test: MTT Cell Proliferation Assay, MDBK cells; assay type: cell-based, bovine; settings: Bos taurus, MDBK, MDBK cells, second value of cell; read-out: MTT Assay IC50(A431/MDBK): MDBK
Description: The following example describes the MTT Cell Proliferation Assay.
The MTT Cell Proliferation Assay is a colorimetric assay system that measures the reduction of the tetrazolium salt MTT (3-(4,5-dimethylthiazol-2-yl)-2,5-diphenyltetrazolium bromide) into insoluble formazan crystals, produced by the mitochondria of viable cells. […] The color can then be quantified by spectrophotometric means. Among the applications for the method are drug sensitivity, cytotoxicity, response to growth factors, and cell activation. The reduction of tetrazolium salts is now recognized as a safe, accurate alternative to radiometric testing.
Two replicates on each cell plate and 2 duplicate plates gave 4 individual replicates of each concentration, in each cell line. Concentrations were diluted in 100% DMSO from 25 mM stocks.
Twelve 96 well plates of each cell line were plated. Plating was done by dislodging cells as in passage protocol, counting on a hemocytometer, re-suspending in standard growth media, and plating using a multichannel pippetor.
16 μl of 25 mM stock+34 μl DMSO=8 mM starting concentrations, and serial diluted as with test compounds in same plate. […] Two replicates of each concentrations was run on each cell plate. All compound addition and cell treatments were done using aseptic technique under a laminar flow aseptic hood.
Control: 0.5% DMSO in treatment media was used as the control.
MTT dye (Thiazolyl Blue Tetrazolium Bromide, Sigma cat #M5655) stock was prepared in bulk and stored at 4° C. for use: 5 mgs/ml sterile PDS, shielded from light. 4 ul of this stock per 100 uls treatment media per well was used.
Plates were incubated overnight prior to treatment, with treatment day=Day 0. Compound treatments were prepared prior to washing cells to minimize time cells were dry at room temperature after final aspiration. Compounds were diluted in 100% DMSO in 96 well polypropylene plates: 40 μl 25 mM stock+10 μl DMSO=20 mM; 20 μl of 20 mM+30 μl DMSO=8 mM; 20 μl of 8 mM+30 μl DMSO=3.2 mM; 20 μl of 3.2 mM+30 μl DMSO=1.3 mM; 20 μl of 1.3 mM+30 μl DMSO=0.51 mM.
5.0 μl/ml were added to treatment media, in sterile, 2.2 ml deep well plates=0.5% dmso final. Ten μl of each dmso concentration was added to 2.0 ml of treatment media and then mixed using a 1200 μl multichannel pipettor. Cell plates were treated from the deep well plates. Treatment media was standard growth media containing 0.5% FBS and standard additions. This reduced FBS concentration allowed for a slower growth rate in cells.
Media was aspirated from cell plates, and washed with 200 μl/well sterile PBS. Aspirated PBS wash, and cell plates were treated with 200 μl of compound/treatment media per well, and incubated at 37° C., 5% CO2 for 3 days.
Prior to harvesting, visual observations were made under an inverted microscope. Plates were harvested by: aspirating the growth media; adding back MTT dye/100 μl treatment media; and incubating plates at 37° C. for 1 hour. MTT dye was aspirated. 100 μl/well dmso was added, and then shaken on a Bellco plate shaker for 5 minutes, at 4.5 setting.
Plates were read in a Tecan Sunrize UV plate reader, at 560 nm. Settings: Read mode, Outside Normal 2 sec; Shake settle time 3 sec. Data is reported as % inhibition, calculated for individual plates using control values from that plate.

[1] = tested on: epithelial carcinoma A431 cell line; test: MTT Cell Proliferation Assay, A431 cells; assay type: cell-based; settings: for IC50: first value of cell, read-out: MTT Assay IC50(A431/MDBK): A431; for MTT Assay IC50(A431/MDBK): ratio in parentheses: ratio MDBK IC50 / A431 IC50 (selectivity)
Summary of the method: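 Each concentration ran in quadruplicate across duplicate plates, with compounds serially diluted in DMSO and delivered at 0.5% DMSO in 0.5% FBS medium for 3 days.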

EGFR = target: T1, EGFR (Homo sapiens, UniProt P00533); test: EGFR in-cell Western (ICW) screening protocol (EGFR inhibition assay); assay type: cell-based; set-up: ICW 1 / ICW 2 / ICW Avg: unit not given here; settings: ICW assay; for ICW Avg: average of runs 1 and 2; for ICW 1: run 1; for ICW 2: run 2
T1 construct: host or cells: A431
T1 sequence (P00533 25-1210): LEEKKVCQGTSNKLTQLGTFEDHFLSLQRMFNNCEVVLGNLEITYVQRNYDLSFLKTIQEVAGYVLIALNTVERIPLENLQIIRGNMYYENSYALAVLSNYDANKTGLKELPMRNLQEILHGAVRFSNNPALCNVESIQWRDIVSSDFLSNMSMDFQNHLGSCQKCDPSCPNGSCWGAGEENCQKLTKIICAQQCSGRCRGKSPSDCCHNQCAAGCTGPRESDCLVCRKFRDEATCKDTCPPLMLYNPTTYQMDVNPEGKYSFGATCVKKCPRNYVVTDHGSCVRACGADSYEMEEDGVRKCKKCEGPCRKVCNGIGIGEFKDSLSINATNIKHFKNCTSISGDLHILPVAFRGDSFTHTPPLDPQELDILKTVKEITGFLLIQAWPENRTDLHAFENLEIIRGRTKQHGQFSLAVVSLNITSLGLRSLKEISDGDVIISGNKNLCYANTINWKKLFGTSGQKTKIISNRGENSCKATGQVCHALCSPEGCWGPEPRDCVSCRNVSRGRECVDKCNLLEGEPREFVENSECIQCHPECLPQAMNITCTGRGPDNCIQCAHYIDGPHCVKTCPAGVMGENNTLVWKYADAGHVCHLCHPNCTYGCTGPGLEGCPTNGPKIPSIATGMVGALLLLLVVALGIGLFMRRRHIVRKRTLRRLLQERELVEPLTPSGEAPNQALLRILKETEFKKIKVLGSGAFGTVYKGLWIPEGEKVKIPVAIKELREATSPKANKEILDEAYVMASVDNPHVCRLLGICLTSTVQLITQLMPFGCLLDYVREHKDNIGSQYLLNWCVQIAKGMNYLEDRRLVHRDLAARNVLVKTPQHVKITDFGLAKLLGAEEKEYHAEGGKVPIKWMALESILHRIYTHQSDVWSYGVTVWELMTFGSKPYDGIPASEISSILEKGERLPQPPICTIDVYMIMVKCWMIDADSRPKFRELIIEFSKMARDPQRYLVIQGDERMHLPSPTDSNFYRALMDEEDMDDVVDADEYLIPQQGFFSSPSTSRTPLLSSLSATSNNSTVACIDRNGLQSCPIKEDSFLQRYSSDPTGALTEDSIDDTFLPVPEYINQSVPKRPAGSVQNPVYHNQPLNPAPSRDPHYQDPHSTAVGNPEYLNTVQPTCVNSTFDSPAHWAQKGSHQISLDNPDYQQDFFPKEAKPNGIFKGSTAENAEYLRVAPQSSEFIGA
Summary of the method: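 In-cell Western read-out: fixed A431 cells were co-stained for total EGFR and phospho-EGFR (Tyr1173; some runs Tyr1045). Before fixation, cells were serum-starved for 2 h, exposed to compound for 4 h, then given EGF for 10 min, usually at 10 ng/ml final (6.6 or 12.5 ng/ml in some runs).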

[2] = Homo sapiens, A-431, A431 cells

Row | Structure (SMILES) | IC50 (MDBK line) | IC50 [1, 2] | MTT Assay IC50(A431/MDBK): ratio in parentheses [1] | ICW Avg (EGFR) | ICW 1 (EGFR) | ICW 2 (EGFR) | IC50 ([1]; A431 cells)
1 | CCc1c(C)[nH]c(Nc2nc(C)c3cc(C)c(C)cc3n2)nc1=O [11809 + TFA] | 10.9 µM | 39.3 µM | 0.28 | 32.72 | 31.42 | 34.02 | –
2 | Cc1ccc2nc(Nc3nc(C)cc(C(F)(F)F)n3)nc(C)c2c1 [11816 + TFA] | 28.1 µM | 14.2 µM | 1.99 | 26.67 | 39.76 | 13.58 | –
3 | Cc1ccc2nc(Nc3nc(=O)cc(CSc4ccc(Cl)cc4)[nH]3)nc(C)c2c1 [11826 + TFA] | 43.3 µM | 49.4 µM | 0.88 | 37.16 | 40.52 | 33.80 | –
4 | CCCCCC1C(=O)N=C(Nc2nc(C)c3ccc(CC)cc3n2)N=C1C (centres unmarked) [12214 + TFA] | 45.5 µM | 32.4 µM | 1.40 | 34.91 | 42.29 | 27.52 | –
5 | CCCCCc1c(C)nc(Nc2nc(C)c3cc(CC)ccc3n2)[nH]c1=O [12226 + TFA] | 49 µM | 42.5 µM | 1.15 | 38.74 | 42.24 | 35.23 | –
6 | Cc1nc(Nc2nc3c(c(-c4ccccc4)n2)CCCC3)nc2c(C)cccc12 [12229 + TFA] | 20.9 µM | 19.2 µM | 1.08 | 25.97 | 16.57 | 35.37 | –
7 | CCCCc1c(C)nc(Nc2nc(C)c3ccccc3n2)[nH]c1=O [12603 + TFA] | 10.1 µM | – | 0.62 | 38.61 | 48.06 | 29.15 | 16.2 µM
8 | Cc1ccc(-c2cc(=O)[nH]c(Nc3nc(C)c4ccc(C)cc4n3)n2)cc1 [12604 + TFA] | 30 µM | 19.3 µM | 1.55 | 50.98 | 55.87 | 46.08 | –
9 | C=CCc1c(C)nc(Nc2nc(C)c3cccc(C)c3n2)[nH]c1=O [12607 + TFA] | 11.8 µM | 16.6 µM | 0.71 | 32.62 | 38.40 | 26.85 | –
10 | CCOc1ccc2nc(Nc3nc(=O)cc(-c4ccccc4)[nH]3)nc(C)c2c1 [12608 + TFA] | 17 µM | 43.1 µM | – | 42.36 | 46.64 | 38.07 | –
11 | C=CCc1c(C)nc(Nc2nc(C)c3ccccc3n2)[nH]c1=O [12610 + TFA] | 19.6 µM | 50.4 µM | 0.39 | 31.33 | 41.25 | 21.42 | –
